One series deals with carps. On the procedure:
A group of 24 carps were distributed over 12 aquaria with 2 fish each. All fish were previously housed in identical conditions, and fed the same diet as the control group in the trial. Every other aquarium was attributed to either a control diet or that control diet supplemented with 500 mg β-alanine per kg. Feeding was done at 1.5% of the body weight, during 2 feeding times/day. To increase the level of oxidative stress, the carps were kept at 27° C. (4° C. above the advised temperature).
The change in bodyweight after the 14 day feeding experiment was measured per fish, but pooled per aquarium as the experimental unit.

Another series has as its system chickens. Conditions: 22 mmol/kg bodyweight orally twice a day for five days; cited from earlier work.
The subject of series [1] is pigs. Conditions: cited from earlier work.
Another series has as its system Ross 308 chickens. As for the experimental part:
A group of 252 Ross 308 chickens were randomly distributed over 14 pens with 18 animals each. All chickens were previously housed in identical conditions, and fed the same diet as the control group in the trial. Every other pen was attributed to either a control diet or that control diet supplemented with 500 mg β-alanine per kg (=595 mg or 6.7 mmol β-alanine per kg dry weight). Water was freely available from drinking cups, and animals were fed ad libitum. The control diet was a commercial broiler diet (Vanden Avenne, Braadkip 114 MB) with 4% corn oil added to increase the level of oxidative stress, as used in earlier studies (Kalmar et al., 2011).
From the age of 24 days to the age of 48 days, the change in bodyweight was measured per bird, but pooled per pen as the experimental unit. At 42 days of age, one male bird per pen was euthanized by intravenous injection of sodium pentobarbital. From the breast and thigh muscle, a sample was dissected and stored airtight at −20° C. until analysis. The breast muscle sample was taken at about one third from the distal end of the breast.

Series [2] deals with broiler chickens. To be noted: cited from earlier work.
In another series the test system is Japanese flounders. Conditions: 8.9 g/kg of β-alanine in diet; cited from earlier work.
Series [3] deals with pigs. As for the experimental part:
At 9 weeks of age, 48 pigs (24 gilts and 24 chirurgical castrated barrows) were divided randomly into groups of four pigs of the same gender. Each group was housed in a separate pen resulting in six pens of four gilts and six pens of four barrows. All pigs were fed the same commercial diet and for three of the six pens of gilts and three of the six pens of barrows their diet was supplemented with 500 mg β-alanine per kg (=568 mg or 6.4 mmol β-alanine per kg dry weight). Water was freely available and the animals were fed ad libitum. After 6 weeks (age of 15 weeks) all animals were euthanized by natrium-pentobarbital.

The test system of series [4] is broiler chickens. Conditions: 0.5% of carnosine in broiler feed; cited from earlier work.
The mark [5] stands for this setting: 500 mg/kg beta-alanine in diet, 14 days.
The mark [6] stands for this setting: 500 mg/kg beta-alanine in diet, 14 days, 27° C.
Setting [7] is: 0.225% of β-alanine in pig diet.
[8] abbreviates: β-alanine in combination with histidine.
Setting [9] is: 500 mg/kg beta-alanine in diet, between 24 and 42 days of age.
Where [10] appears, read: 0.5% of β-alanine in feed for 4 weeks.
The mark [11] stands for this setting: 1 and 2% of β-alanine in feed for 4 weeks.

SMILES strings stand for the structures. Read-outs that look alike come from different tables or passages of the source.

On to `NCCC(=O)O` [Beta-alanine, β-alanine], for which the Average feed intake in the series on carps (setting [5]) was found to be 44.1 g. For the same molecule, the feed conversion ratio in the series on carps (setting [5]) is listed as 2.7 g:g; with chickens it was “decreased”; in the series with pigs [1] (setting [7]) it was “decreased somewhat”; in the series with pigs [1] (setting [8]), “increased to become higher than the control”; in the series with broiler chickens [2] (setting [10]) it was “no significant changes”; with broiler chickens [2] (setting [11]), “increased”. Also, the feed conversion ratio entry with Japanese flounders is given as “increased significantly”. The same molecule registered an Average weight gain with carps (setting [6]) of 19.0 g. Besides, the Final bodyweight was 230.1 g in the series on carps (setting [6]); 2.874 kg in the series on Ross 308 chickens (setting [9]); 44.1 kg in the series on pigs [3] (500 mg/kg beta-alanine in diet, 15 weeks of age). The Initial bodyweight is on record as 211.1 g in the series on carps (baseline, 500 mg/kg group); 1.362 kg in the series on Ross 308 chickens (baseline at 24 days of age, 500 mg/kg group); 18.7 kg in the series on pigs [3] (baseline at 9 weeks of age, 500 mg/kg group). In addition, the bodyweight gain entry in the series on chickens is reported as “also decreased”; in the series with pigs [1] (setting [7]) it was “decreased somewhat”; in the series on pigs [1] (setting [8]) it was “decreased even more”; in the series with broiler chickens [2] (setting [10]), “no significant changes”; with broiler chickens [2] (setting [11]) it was “decreased significantly”; with Japanese flounders, “increased somewhat but not significantly”. Besides, the feed consumption entry in the series with chickens is given as “also decreased”. For the same molecule, the Average daily gain with Ross 308 chickens (setting [9]) is 108 g. Moreover, the “bodyweight at slaughter vs control” value in the series on Ross 308 chickens (500 mg/kg β-alanine in diet) is “tended to have a higher bodyweight at slaughter”; in the series on pigs [3] (500 mg/kg β-alanine in diet), “tend to have a higher bodyweight at slaughter”. Moreover, the “bodyweight gain vs control” value in the series on Ross 308 chickens (500 mg/kg β-alanine in diet) and in the series on pigs [3] (500 mg/kg β-alanine in diet) was “tended to have a higher bodyweight gain” throughout. Moreover, the “Bodyweight gain over 6 weeks” value in the series on pigs [3] (500 mg/kg beta-alanine in diet, 9 to 15 weeks of age) was determined as 25.4. For the same molecule, the “overall growth of the piglets” value with pigs [3] (500 mg/kg β-alanine in diet) is “increases the overall growth”. In the series on pigs [3] (500 mg/kg β-alanine in diet, 6 weeks), the “death or illness during the trial” value is listed as “No animals died or became ill”.

As to `NCCC(=O)N[C@@H](Cc1c[nH]cn1)C(=O)O` [carnosine, β-alanyl-L-histidine], in the series on broiler chickens [4], the “chicken meat quantity and quality” value is reported as “improve”; the feed conversion ratio entry is reported as “improved but not statistically significantly”; the weight gain entry is given as “improved but not statistically significantly”.

These data come from patent US20150126603A1, “TREATMENT OF POULTRY, PIGS OR FISH FOR REDUCING THE FEED CONVERSION RATIO OR INCREASING THEIR BODYWEIGHT GAIN” (TAMINCO, priority 2012, published 2015).
